Measurements: US9415023B2, “Compositions comprising terpene compounds for treating negative sensory phenomena” (NeuroQuest Inc., priority 2008, dated 2016)
Entries after “also recorded” stand apart in the source; their conditions may differ.

Key:
cortical neuron = assay: Perforated patch clamp electrophysiology of mouse brain slices; format: cell-based; conditions: for membrane current (current-voltage relation): geraniol vs. control
Description: Studies were conducted on mouse hippocampal brain slice preparations. In terms of the slice preparations, […] coronal brain slices were prepared from animals housed in a 12 hour light (ZT 0-12):12 hour dark (ZT 12-24) environment. Animals were anesthetized with isoflurane, decapitated, the brain rapidly removed and placed in ice cold, oxygenated (95% 02:5% C02), bicarbonate-buffered artificial cerebral spinal fluid (ACSF). A 1 cm^2 block of brain tissue containing the hippocampi was glued to a cutting surface and coronal slices were prepared using a Leica VT1000S microtome (Leica Microsystems). All slices were left to equilibrate for approximately one hour prior to the transfer to a recording chamber. Once transferred to the chamber, slices were continuously superfused with oxygenated ACSF at a rate of 3 ml/min @30° C. and recordings are generally made for the next 6-12 hours. Patch microelectrodes (5-8 MΩ) made from borosilicate glass (Garner Glass Co.) and filled with K^+ based internal patch solution composed of: (in mM) 120 K-acetate, 40 HEPES, 10 EGTA, 6 MgCl2, nystatin (450 μg/ml) or gramicidin B (5 μg/ml) and pluronic acid F127.
The perforated patch recording technique and will be used (Korn & Horn, 1989) and viable Hippocampal neurons were visually targeted using Infrared Differential Interference Contrast (IR-DIC) microscopy using a Leica DM LFSA scope. […] Recordings were made from 3 different patch rigs equipped with either […] patch clamp amplifiers interfaced via a Digidata 1322A to a PC computer or on, in terms of the studies performed on dissociated DRG neurons, a Zeiss Axoscop 200 inverted microscope equipped with an Axopatch 200B/Digidata 1322A using Pclamp 9.0 and Axoscope 9 software.
Test compounds were bath-applied by superfusion to examine for changes in excitability and/or attenuation of ion channels and the effects of compounds on evoked synaptic responses. Stimulating electrodes (concentric or bipolar) were placed within the slices and in accordance with the well known fiber tract pathways of passage for the DH and the hippocampus.

[1] = Subject-reported relief of numbness and pain after topical application (case studies); format: in vivo, human
Description: (§1) A natural blend of geranium oil and other essential oils (Table 1) was also tested in a panel of human neuropathic pain sufferers, some of whom experienced negative sensory phenomena. […] The geranium oil blend or geraniol was topically applied in therapeutically effective amounts to areas of the human body affected with symptoms of negative sensory symptoms. Dosage amount depended on the size of the patient's affected areas. […] Once administered, a typical positive response was reported typically within minutes.

[2] = Nylon filament test of sensation after topical application (case studies); format: in vivo, human
Description: as §1
7, 2008 and complained of numbness on the soles of their feet. Their sensation was tested with a nylon filament and the patient could not feel the filament on the ball of either foot. Geraniol was applied to the ball of one foot. After approximately 5 minutes the feet were retested with the nylon filament. The foot that had not been treated still could not detect the touch of the filament.
They could not feel a nylon filament used to test sensation on the bottom of either foot. They had geraniol applied to the left foot and the sensation was retested after 5 minutes. […] The patient was given geraniol to use on the left foot every other day.

SMILES: CC(C)=CCC/C(C)=C/CO [geraniol, 2,6-Octadien-1-ol, 3,7-dimethyl-, (2E)-]
- action potentials during current-voltage steps (cortical neuron; 10 mV steps (250 ms) from -110 to -20 mV, in presence of compound): inhibition of action potentials
- membrane current (current-voltage relation) (cortical neuron; 10 mV steps (250 ms) from -110 to -20 mV): reduction in the membrane current amplitude; also recorded: reduction of membrane currents
- membrane current (current-voltage relation) (cortical neuron; 10 mV steps (250 ms) from -110 to -20 mV, listed as Geraniol): reduction of membrane currents
- action potential following depolarizing current pulse (cortical neuron; depolarizing current pulse of 0.4 nA): inhibition of action potential
- net current reduction (current differential between control and tested compound) (cortical neuron; most negative voltage step (-110 mV), FIG. 3, ranking among samples): greatest inhibition
- numbness / negative sensory phenomena, subject-reported [1]: improvements seen in subjectively reported symptoms
- feeling in treated foot vs untreated foot ([2]; topical every other day, over 2 week period): continued to have more feeling than the right foot
- sensation tested with nylon filament on treated foot ([2]; topical, retested after approximately 5 minutes, untreated foot as comparison): improvements in sensory functioning; also recorded: able to feel the nylon filament; also recorded: could detect feeling with a nylon filament
